Assay results: patent US20070111284A1, “Galactosylation of Recombinant Glycoproteins” (Genentech, Inc., priority 2000, published 2007)

Legend:
CAD mRNA = CAD mRNA expression by RNase protection assay in PALA selected cells; type: cell-based; conditions: TRY cells selected under 2 mM PALA; FIG. 4
Description: CAD expression was measured on PALA resistant cells using a RNase protection assay similar to the method described in Mahler and McGuire. Mahler and McGuire (1990), J. Clin. Invest., 86: 1641-1648. In particular, TRY cells were selected under 2 mM PALA and CAD mRNA expression measured using a RNase protection assay.

CHO cells [1] = test: Intracellular nucleotides and nucleotide sugars (HPLC) in PALA resistant CHO cells; type: cell-based, Chinese hamster; conditions: FIG. 6
Description: CHO cells were treated in 5 mM PALA, cell extracts were prepared and nucleotides measured using a method similar to Ryll and Wagner. Ryll and Wagner (1991) J. Chromatography, 570:77-88. The experiment was performed over a time course of 10 to 90 days and data quantified and plotted as UTP content of PALA resistant cells relative to control cells.
Further, PALA resistant CHO DP12 cells expressing TNFR-IgG were seeded at 4×10^6 cells per ml in spinner flask cultures and incubated at 31° C. and 6 mM butyrate for 6 days. The cell culture supernatant was harvested and TNFR-IgG recovered by a method of protein A immunoaffinity chromatography as is well known in the art. N-linked glycans were analyzed by MALDI mass spectrometry using the method generally described by Papac et al., (1996) Anal. Chem., 68:3215-3223. Sialic acid content of the TNFR-IgG was determined using were analyzed using the method generally described by Anumula, (1995) Anal. Biochem., 230, 24-30.

CPS II = CPS II activity in PALA resistant CHO cells; type: cell-based, Chinese hamster; conditions: CHO B cell line, selected with 3 mM PALA; FIG. 3
Description: CHO DP12 and CHO DG44 parental cell lines and CHO DP12 expressing TNFR-IgG and anti-CD11a were cultivated with and without P-phosphonacytyl-L-aspartate (PALA). As shown schematically in FIG. 2, each cell line was plated at 10% confluency in 10 cm petri dishes using standard tissue culture techniques. Cells were cultured in serum containing medium having 0.1 mM PALA. The culture medium was changed weekly. Surviving clones were pooled and sub-cultivated in increasing concentrations of PALA until the target PALA concentration was reached, i.e., 2-10 mM PALA. After selection for the PALA phenotype (see below), cells were either passed into a PALA containing medium or to a PALA free medium and further cultivated in suspension spinner flasks. Spinner flask cell populations were sub-cultivated every 4-7 days. Cells selected in the presence of PALA are referred to as PALA-resistant cells, cells cultivated in the same manner as above but not treated with PALA will be referred to as control cells.
CHO cells treated with 3 mM PALA were analyzed for CPS II activity, an indicator of overall CAD activity, using the method generally described in Mori and Tatibana. […] Two PALA resistant CHO sub-cultures were analyzed, CHO-A and CHO-B, to ensure that results were uniform to the PALA resistant phenotype and not particular to a sub-population of treated cells.

CHO cells [2] = test: Intracellular UTP and UDP-galactose in CHO cells fed uridine or galactose; type: cell-based, Chinese hamster
Description: CHO cells were incubated under standard tissue culture technique in the presence and absence of 1 to 20 mM uridine for 18 hours and tested for UTP concentrations using a method similar to Ryll and Wagner. Quantified data from the 0, 1, 2, 5, 10 and 20 mM uridine cultures were plotted as a function of normalized intracellular UTP concentrations. Alternatively, CHO Cells were cultured in the presence of 0.2 mM uridine or 11 mM galactose and tested for UTP concentrations using the method of Ryll and Wagner.

[3] = test system: CHO cell line that produces aCD20; test: Galactose content of aCD20 MAb from CHO cells cultured with uridine (capillary electrophoresis); type: cell-based, Chinese hamster; conditions: 0.5 to 1.0 mM uridine for 7 days; FIG. 10
Description: A CHO cell line that produces a recombinant glycoprotein, monoclonal antibody (MAb) aCD20, was cultured in the presence and absence of 0.5 to 1.0 mM uridine for a period of 7 days. Secreted aCD20 MAb was purified by immunoaffinity using the method of Ma & Nashabeh. Ma & Mashabeh (1999) Analytical Chemistry 71(22):5185-92. Purified aCD20 was tested for galactose content using the capillary electrophoresis method of Ma & Nashabeh and plotted as a percent galactose content.

[4] = 0.2 mM uridine or 11 mM galactose, FIG. 8

Row | Structure (SMILES) | increase in CAD mRNA as compared to control cells (CAD mRNA) | increase in UTP content as compared to control cells (CHO cells [1]; CHO cells treated in 5 mM PALA, time course of 10 to 90 days) | increase in UDP-galactose content as compared to control cells (CHO cells [1]; PALA resistant CHO cells, period of at least 90 days) | increase in CPS II activity as compared to control CHO cells (CPS II) | intracellular UTP levels (CHO cells [2]; [4]) | intracellular UDP-galactose levels (CHO cells [2]; 11 mM galactose, FIG. 8) | galactose content of aCD20 MAb versus non-uridine treated control cells [3] | intracellular UTP levels (CHO cells [2]; 1 to 20 mM uridine for 18 hours, FIG. 7)
1 | O=C(O)C[C@H](NC(=O)CP(=O)(O)O)C(=O)O [PALA, N-phosphonacetyl-L-aspartate] | two | 200-350% | 200-350% | twenty | – | – | – | –
2 | O=C[C@H](O)[C@@H](O)[C@@H](O)[C@H](O)CO [galactose] | – | – | – | – | does not increase UTP levels | does increase UDP-galactose levels | – | –
3 | O=c1ccn([C@@H]2O[C@H](CO)[C@@H](O)[C@H]2O)c(=O)[nH]1 [uridine] | – | – | – | – | dramatic increase in UTP levels | – | much higher galactose content | increases UTP levels within the cell in a dose dependent manner
